Molecular target: Nitric oxide synthase, brain (Bos taurus)
Experiment: Inhibition against neuronal nitric oxide synthase (nNOS) from bovine brain was determined

Ki: 12 mM
SMILES: C#CCNC(=N)N [amino(prop-2-ynylamino)methaniminium]

— BindingDB's records for doi:10.1016/S0960-894X(97)00241-2 (1997)
